Test results from patent publication US7741020B2, “Methods for detecting Lp-PLA2 activity and inhibition of Lp-PLA2 activity” (Glaxo Group Limited, priority 2004, dated 2010).
“And” between values parts separate entries of the source, which are not always exact repeats. Identical values can stand only once.

Experiments:
Lp-PLA2 [1] = biological target: T1, Lp-PLA2 (Homo sapiens, UniProt Q13093); assay: High throughput radiometric assay for Lp-PLA2 activity (3H-PAF); assay type: biochemical; settings: plasma of individual human subjects
T1 sequence (Q13093 22-441): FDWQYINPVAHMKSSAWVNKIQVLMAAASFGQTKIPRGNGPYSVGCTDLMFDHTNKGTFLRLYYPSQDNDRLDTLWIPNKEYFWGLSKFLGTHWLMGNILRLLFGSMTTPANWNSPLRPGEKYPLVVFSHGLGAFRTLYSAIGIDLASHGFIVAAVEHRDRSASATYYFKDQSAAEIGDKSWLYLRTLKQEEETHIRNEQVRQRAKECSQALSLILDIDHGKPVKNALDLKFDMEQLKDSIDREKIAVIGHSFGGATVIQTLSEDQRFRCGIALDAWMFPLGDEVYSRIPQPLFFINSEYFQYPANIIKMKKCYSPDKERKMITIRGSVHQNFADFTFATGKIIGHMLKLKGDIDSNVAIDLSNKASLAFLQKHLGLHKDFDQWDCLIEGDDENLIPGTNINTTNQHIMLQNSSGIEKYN
Protocol: (cat #6005162) Reagents • HEPES (4-(2-hydroxyethyl)-1-piperazineethane sulfonic acid) Sigma Chemical Co., St. Louis Mo. […] (Cat # E7889; 0.5 M) • ^3H-Platelet Activating Factor, 1-O-Hexadecyl-[acetyl-^3H(N)], (^3H-PAF)-NEN Life Science Products, Roxbury, Mass. (Cat # NET-910, supplied as an ethanol solution, typically 0.1 mCi/mL; 250 uCi) • C16-PAF, (1-hexadecyl-2-acetyl-sn-glycero-3-phosphocholine): Avanti Polar Lipids, Alabaster, Ala. […] (Cat # T9159) Assay Buffer • 100 mM Hepes, pH 7.4 • 150 mM NaCl • 5 mM EDTA • Store it at room temperature Procedures • 1. Prepare a ^3H-PAF working solution (for 100 reactions): • a) Aliquot 480 μl ^3H-PAF (10 μM=0.1 mCi/ml at 10.0 Ci/mmol) and 125.3 μl of [C16]PAF (5.0 mg/ml; MW: 524) to a tube; • b) Mix and air dry in the hood; • c) Resuspend the dried pellets in 12.0 ml of assay buffer giving working solutions of 100 μM PAF (i.e. ^3H-PAF at 0.4 μM and cold [C16]PAF at 99.6 μM); • 2. Aliquot 5 μL of assay buffer (for Total counts and Blanks; n=8) or plasma samples in duplicates into a 96-well plate; • 3. Equilibrate the plate to 21° C.; • 4. Add 100 μL of the ^3H-PAF solution to each well, mix and incubate the plate at 21° C. for 5 minutes; • 5. […]; • 6. Add 25 μL of ice-cold TCA solution (56%) to each well, mix and incubate the plate in a refrigerator for 15 minutes; • 7. Centrifuge the plate at 6,000 g for 15 minutes at 4° C.; • 8. […] Add 10 μL of ^3H-PAF working solution to 6 Total Counts wells; • 10. […] Cover the plate with a plate tape and vortex mix at max speed for 10 minutes; • 12. […] Count with a TopCount scintillation counter for 2 minutes each; and • 14.

Lp-PLA2 [2] = biological target: T1, Lp-PLA2; assay: Modified drug-sensitive colorimetric assay, plasma; assay type: biochemical; settings: plasma of individual human subjects
Description: Assay Procedure • 1. […] Use duplicates for each sample. • 4.
Pre-dose plasma samples for each subject on day 0 of the study were also available.

Question: How did the “% Inhibition Radiometric” value (Lp-PLA2 [1]; 50 mg, 5 hr after dosing) turn out when COCCN1CCC(N(Cc2ccc(-c3ccc(C(F)(F)F)cc3)cc2)C(=O)Cn2c(SCc3cccc(F)c3F)cc(=O)c3ccccc32)CC1 [Formula I] was run?
Answer: 86.07%

Question: And the “% Inhibition Radiometric” value (Lp-PLA2 [1]; 120 mg, 0.5 hr after dosing)?
Answer: 64.75% and 81.63% and 44.97% and 33.96%

Question: And the “Lp-PLA2 Activity Radiometric” value (Lp-PLA2 [1]; 120 mg, 0.5 hr after dosing)?
Answer: 35.83 nmol/min/mL and 25.97 nmol/min/mL and 16.07 nmol/min/mL and 39.68 nmol/min/mL and 58.09 nmol/min/mL

Question: What about the “% Inhibition Radiometric” value (Lp-PLA2 [1]; 120 mg, 1 hr after dosing) of the same molecule?
Answer: 88.66%

Question: And the “Lp-PLA2 Activity Radiometric” value (Lp-PLA2 [1]; 120 mg, 1 hr after dosing)?
Answer: 10.00 nmol/min/mL

Question: And the “Lp-PLA2 Activity Radiometric” value (Lp-PLA2 [1]; 120 mg, 2 hr after dosing)?
Answer: 10.00 nmol/min/mL

Question: What about the “Lp-PLA2 Activity Radiometric” value (Lp-PLA2 [1]; 120 mg, 3 hr after dosing) of the same molecule?
Answer: 14.09 nmol/min/mL and 12.80 nmol/min/mL and 10.00 nmol/min/mL (2×) and 21.08 nmol/min/mL

Question: What about the “% Inhibition Radiometric” value (Lp-PLA2 [1]; 120 mg, 4 hr after dosing) of the same molecule?
Answer: 90.91% and 72.94%

Question: And the “Lp-PLA2 Activity Radiometric” value (Lp-PLA2 [1]; 120 mg, 4 hr after dosing)?
Answer: 14.00 nmol/min/mL and 10.00 nmol/min/mL (2×)

Question: What about the “% Inhibition Radiometric” value (Lp-PLA2 [1]; 120 mg, 5 hr after dosing) of the same molecule?
Answer: 91.73%

Question: And the “Lp-PLA2 Activity Radiometric” value (Lp-PLA2 [1]; 120 mg, 5 hr after dosing)?
Answer: 14.05 nmol/min/mL and 11.69 nmol/min/mL and 10.00 nmol/min/mL (2×) and 20.24 nmol/min/mL

Question: What about the “Lp-PLA2 Activity Radiometric” value (Lp-PLA2 [1]; 120 mg, 6 hr after dosing) of the same molecule?
Answer: 10.00 nmol/min/mL

Question: What about the “Lp-PLA2 Activity Radiometric” value (Lp-PLA2 [1]; 120 mg, 9 hr after dosing) of the same molecule?
Answer: 21.11 nmol/min/mL and 18.51 nmol/min/mL and 14.41 nmol/min/mL and 32.48 nmol/min/mL and 11.21 nmol/min/mL

Question: And the “Lp-PLA2 Activity Radiometric” value (Lp-PLA2 [1]; 120 mg, 12 hr after dosing)?
Answer: 24.22 nmol/min/mL and 21.27 nmol/min/mL and 16.97 nmol/min/mL and 34.26 nmol/min/mL and 15.69 nmol/min/mL

Question: What about the “% Inhibition Drug-Sensitive Colorimetric” value (Lp-PLA2 [2]; 50 mg, 0.5 hr after dosing) of the same molecule?
Answer: 16.91% and 18.69% and 26.95%

Question: And the “Lp-PLA2 Activity Drug-Sensitive Colorimetric” value (Lp-PLA2 [2]; 50 mg, 0.5 hr after dosing)?
Answer: 89.99 nmol/min/mL and 69.79 nmol/min/mL and 81.70 nmol/min/mL and 32.96 nmol/min/mL and 141.14 nmol/min/mL

Question: And the “Lp-PLA2 Activity Drug-Sensitive Colorimetric” value (Lp-PLA2 [2]; 50 mg, 1 hr after dosing)?
Answer: 17.15 nmol/min/mL and 39.10 nmol/min/mL and 24.96 nmol/min/mL and 22.46 nmol/min/mL and 37.07 nmol/min/mL

Question: And the “% Inhibition Drug-Sensitive Colorimetric” value (Lp-PLA2 [2]; 50 mg, 4 hr after dosing)?
Answer: 85.71%

Question: And the “Lp-PLA2 Activity Drug-Sensitive Colorimetric” value (Lp-PLA2 [2]; 50 mg, 5 hr after dosing)?
Answer: 20.74 nmol/min/mL and 31.77 nmol/min/mL and 16.58 nmol/min/mL and 15.83 nmol/min/mL and 18.35 nmol/min/mL

Question: And the “Lp-PLA2 Activity Drug-Sensitive Colorimetric” value (Lp-PLA2 [2]; 50 mg, 6 hr after dosing)?
Answer: 23.71 nmol/min/mL and 66.08 nmol/min/mL and 21.01 nmol/min/mL and 25.84 nmol/min/mL and 25.12 nmol/min/mL

Question: What about the “% Inhibition Drug-Sensitive Colorimetric” value (Lp-PLA2 [2]; 50 mg, 12 hr after dosing) of the same molecule?
Answer: 60.73% and 36.04% and 55.61%

Question: And the “Lp-PLA2 Activity Drug-Sensitive Colorimetric” value (Lp-PLA2 [2]; 50 mg, 12 hr after dosing)?
Answer: 34.83 nmol/min/mL and 76.84 nmol/min/mL and 111.00 nmol/min/mL and 53.72 nmol/min/mL and 44.60 nmol/min/mL

Question: And the “% Inhibition Drug-Sensitive Colorimetric” value (Lp-PLA2 [2]; 120 mg, 0.5 hr after dosing)?
Answer: 88.89% and 85.22% and 45.29% and 41.39%

Question: And the “Lp-PLA2 Activity Drug-Sensitive Colorimetric” value (Lp-PLA2 [2]; 120 mg, 0.5 hr after dosing)?
Answer: 31.08 nmol/min/mL and 20.14 nmol/min/mL and 19.87 nmol/min/mL and 63.95 nmol/min/mL and 64.40 nmol/min/mL

Question: What about the “% Inhibition Drug-Sensitive Colorimetric” value (Lp-PLA2 [2]; 120 mg, 1 hr after dosing) of the same molecule?
Answer: 88.85%

Question: And the “Lp-PLA2 Activity Drug-Sensitive Colorimetric” value (Lp-PLA2 [2]; 120 mg, 1 hr after dosing)?
Answer: 19.69 nmol/min/mL and 23.29 nmol/min/mL and 14.99 nmol/min/mL and 30.22 nmol/min/mL and 18.74 nmol/min/mL

Question: What about the “Lp-PLA2 Activity Drug-Sensitive Colorimetric” value (Lp-PLA2 [2]; 120 mg, 2 hr after dosing) of the same molecule?
Answer: 19.69 nmol/min/mL and 19.54 nmol/min/mL and 12.22 nmol/min/mL and 29.51 nmol/min/mL and 10.11 nmol/min/mL

Question: What about the “Lp-PLA2 Activity Drug-Sensitive Colorimetric” value (Lp-PLA2 [2]; 120 mg, 3 hr after dosing) of the same molecule?
Answer: 13.17 nmol/min/mL and 20.61 nmol/min/mL and 15.08 nmol/min/mL and 30.49 nmol/min/mL and 11.51 nmol/min/mL

Question: What about the “Lp-PLA2 Activity Drug-Sensitive Colorimetric” value (Lp-PLA2 [2]; 120 mg, 4 hr after dosing) of the same molecule?
Answer: 7.30 nmol/min/mL and 21.27 nmol/min/mL and 16.18 nmol/min/mL and 29.42 nmol/min/mL and 11.21 nmol/min/mL

Question: And the “Lp-PLA2 Activity Drug-Sensitive Colorimetric” value (Lp-PLA2 [2]; 120 mg, 5 hr after dosing)?
Answer: 22.94 nmol/min/mL and 21.36 nmol/min/mL and 18.14 nmol/min/mL and 35.46 nmol/min/mL and 12.22 nmol/min/mL

Question: And the “Lp-PLA2 Activity Drug-Sensitive Colorimetric” value (Lp-PLA2 [2]; 120 mg, 6 hr after dosing)?
Answer: 20.65 nmol/min/mL and 21.39 nmol/min/mL and 18.74 nmol/min/mL and 39.29 nmol/min/mL and 17.01 nmol/min/mL

Question: What about the “Lp-PLA2 Activity Drug-Sensitive Colorimetric” value (Lp-PLA2 [2]; 120 mg, 9 hr after dosing) of the same molecule?
Answer: 27.16 nmol/min/mL and 27.87 nmol/min/mL and 26.18 nmol/min/mL and 50.81 nmol/min/mL and 21.03 nmol/min/mL
